The values that follow come from patent US4486584A, “Demethylmacrocin compounds and derivatives thereof” (Eli Lilly and Company, priority 1982, dated 1984).

Series [1] deals with Streptomyces fradiae ATCC 31664. As to the kind of experiment: Antibiotic sensitivity, sensitivity discs on seeded agar plates. Further: key: -: resistance (no zones of inhibition); +: sensitivity (zones of inhibition); trace of sensitivity. The series is classed as cell-based. The following applies: discs: chloramphenicol, cephaloridine, tetracycline, vancomycin 30 μg, erythromycin 15 μg, lincomycin 2 μg, polymyxin B 300 units, streptomycin 10 μg. From the text:
(§1) ^a Determined by using sensitivity discs padded onto seededagar

Series [2] concerns Streptomyces fradiae E2724.1. Described as above. The series is classed as cell-based. The following applies: discs: chloramphenicol, cephaloridine, tetracycline, vancomycin 30 μg, erythromycin 15 μg, lincomycin 2 μg, polymyxin B 300 units, streptomycin 10 μg. Further: key: -: resistance (no zones of inhibition); +: sensitivity (zones of inhibition); trace of sensitivity.
Text: as §1

Series [3] has as its system Streptococcus pneumoniae Park I. Description: Standard agar-dilution MIC assay. The class given is cell-based. Particulars: DOMM free base. From the text:
(§2) Table 8 summarizes the minimal inhibitory concentrations (MIC), as measured by standard agar-dilution assays, at which DOMM (free base) inhibits certain bacteria.

The test system of the next series is Pasteurella hemolytica. As to the kind of experiment: Standard agar-dilution MIC assay. The class given is cell-based. The following applies: DOMM free base.
Text: as §2

A further series relates to Mycoplasma hyopneumoniae. As to the kind of experiment: Standard agar-dilution MIC assay. The series is classed as cell-based. Particulars: Mesomycoplasma hyopneumoniae, DOMM free base.
Text: as §2

For a further series, the system named is Pasteurella multocida. As to the kind of experiment: Standard agar-dilution MIC assay. Particulars: DOMM free base. The class given is cell-based.
Text: as §2

In series [4] the test system is Streptococcus pyogenes C203. As to the kind of experiment: Standard agar-dilution MIC assay. The series is classed as cell-based. The following applies: DOMM free base.
Text: as §2

A further series concerns Mycoplasma gallisepticum. As to the kind of experiment: Standard agar-dilution MIC assay. The series is classed as cell-based. Particulars: Mycoplasmoides gallisepticum, DOMM free base.
Text: as §2

The next series has as its system Mycoplasma hyorhinis. As to the kind of experiment: Standard agar-dilution MIC assay. Particulars: DOMM free base. The class given is cell-based.
Text: as §2

Series [5] deals with Streptococcus sp. (Group D) 282. As to the kind of experiment: Standard agar-dilution MIC assay. The class given is cell-based. The following applies: DOMM free base.
Text: as §2

A further series in a line: Solubility. The series is classed as physicochemical.
The nature of series [6]: Electrometric titration (pKa). The class given is physicochemical. Particulars: 66% aqueous dimethylformamide. From the text:
Electrometric titration of DOMM in 66% aqueous dimethylformamide indicates the presence of a titratable group with a pKa value of about 7.14.

Series [7] deals with pathogenic bacteria, especially gram-positive bacteria and Mycoplasma species. Description: Inhibition of growth of pathogenic organisms (general statement). The class given is cell-based.
Text: as §2

Series [8] relates to Streptococcus pneumoniae Park I. Description: Experimental infection in mice, ED50. The class given is in vivo. Particulars: sc, subcutaneous, two doses, bacterial challenge (X LD50) = 41.2, read-out: Subcutaneous ED50 (effective dose to protect 50% of the test animals). How it is done:
(§3) The DOMM compounds have shown in vivo antimicrobial activity against experimental bacterial infections. When two doses of test compound were administered to mice in experimental infections, the activity observed was measured as an ED50 value [effective dose in mg/kg to protect 50% of the test animals: see Warren Wick, et al., J. Bacteriol. 81, 233-235 (1961)].

For series [9], the system named is Staphylococcus aureus 3055. Description: Experimental infection in mice, ED50. The series is classed as in vivo. The following applies: sc, subcutaneous, two doses, bacterial challenge (X LD50) = 139, read-out: Subcutaneous ED50 (effective dose to protect 50% of the test animals). On the procedure: as §3
The test system of series [10] is Streptococcus pyogenes C203. Description: Experimental infection in mice, ED50. The following applies: sc, subcutaneous, two doses, bacterial challenge (X LD50) = 133, read-out: Subcutaneous ED50 (effective dose to protect 50% of the test animals). The series is classed as in vivo. On the procedure: as §3

In brackets after ≈: the same amount, converted by molar mass.

As for `O=C(N[C@H](CO)[C@H](O)c1ccc([N+](=O)[O-])cc1)C(Cl)Cl` [Chloramphenicol], the Antibiotic sensitivity result in series [1] and in series [2] was “+” throughout.
As for Polymyxin B, the Antibiotic sensitivity entry in [1] was “+”.
As to `[H]/N=C(/N)N[C@H]1[C@H](O)[C@@H](O)[C@H](O[C@@H]2O[C@@H](C)[C@](O)(C=O)[C@H]2O[C@@H]2O[C@@H](CO)[C@H](O)[C@@H](O)[C@@H]2NC)[C@@H](N/C(N)=N\[H])[C@@H]1O` [Streptomycin], the Antibiotic sensitivity entry in [1] and in series [2] was “+” in each case.
`CCC1OC(=O)CC(O)C(C)C(OC2OC(C)C(OC3CC(C)(O)C(O)C(C)O3)C(N(C)C)C2O)C(CC=O)CC(C)C(=O)C=CC(C)=CC1COC1OC(C)C(O)C(O)C1O` (centres unmarked) [DOMM, 2'"-O-demethylmacrocin]: the MIC (commonly the least concentration at which growth counts as inhibited) worked out at 0.25 µg/mL (≈ 0.282 µM) in [3]; 50 µg/mL (≈ 56.3 µM) in the series with Pasteurella hemolytica; 0.78 µg/mL (≈ 0.878 µM) against Mycoplasma hyopneumoniae; 12.5 µg/mL (≈ 14.1 µM) with Pasteurella multocida; 0.25 µg/mL (≈ 0.282 µM) in series [4]; 0.78 µg/mL (≈ 0.878 µM) with Mycoplasma gallisepticum. The MIC against Mycoplasma hyorhinis was determined as 3.12 µg/mL (≈ 3.51 µM); in [5], 4 µg/mL (≈ 4.5 µM). The “solubility in most polar organic solvents” value in “Solubility” (acetone, methanol, ethanol, chloroform, dimethylformamide and dimethyl sulfoxide) is listed as “soluble”. Also, in the series “Solubility” (water), the solubility in water entry is given as “soluble”. Besides, the pKa value result in series [6] is “about 7.14”. Further, the “growth inhibition / antibacterial activity (in words)” value in series [7] is “especially active against grampositive microorganisms and Mycoplasma species”. For the same compound, the ED50 – broadly, the dose that gives a 50% effect, or the effect in half of the subjects – in [8] was 37.5 mg/kg; in series [9], 3.8 mg/kg; in [10] it was 1.1 mg/kg.
With `CCC1OC(=O)CC(O)C(C)C(OC2OC(C)C(OC3CC(C)(O)C(O)C(C)O3)C(N(C)C)C2O)C(CCO)CC(C)C(=O)C=CC(C)=CC1COC1OC(C)C(O)C(O)C1O` (centres unmarked) [dihydro-DOMM, 20-dihydro-2'"-O-demethylmacrocin], the “growth inhibition / antibacterial activity (in words)” value in [7] is “especially active against grampositive microorganisms and Mycoplasma species”.
As to `O=C(Cc1cccs1)N[C@@H]1C(=O)N2C(C(=O)[O-])=C(C[n+]3ccccc3)CS[C@H]12` [Cephaloridine], the Antibiotic sensitivity entry in [1] and in [2] was “+” throughout.
`CN[C@H](CC(C)C)C(=O)N[C@H]1C(=O)N[C@@H](CC(N)=O)C(=O)N[C@H]2C(=O)N[C@H]3C(=O)N[C@H](C(=O)N[C@H](C(=O)O)c4cc(O)cc(O)c4-c4cc3ccc4O)[C@H](O)c3ccc(c(Cl)c3)Oc3cc2cc(c3O[C@@H]2O[C@H](CO)[C@@H](O)[C@H](O)[C@H]2O[C@H]2C[C@](C)(N)[C@H](O)[C@H](C)O2)Oc2ccc(cc2Cl)[C@H]1O` [Vancomycin]: the Antibiotic sensitivity entry in series [1] and in series [2] was “+” throughout.
For `CCC[C@@H]1C[C@@H](C(=O)N[C@@H]([C@H]2O[C@H](SC)[C@H](O)[C@@H](O)[C@H]2O)[C@@H](C)O)N(C)C1` [Lincomycin], the Antibiotic sensitivity result in series [1] and in series [2] was “-” each time.
For the compound `CN(C)C1C(=O)C(C(N)=O)=C(O)C2(O)C(=O)C3=C(O)c4c(O)cccc4C(C)(O)C3CC12` (centres unmarked) [Tetracycline], the Antibiotic sensitivity result in series [1] and in series [2] was “+” in each case.
